Measurements: EP4806435A1, “DIHYDROCHROMENE-DERIVATIVE-CONTAINING THERAPEUTIC AGENT FOR CANCER” (Sumitomo Pharma Co., Ltd., priority 2023, dated 2025)

Tested on: patients with recurrent malignant glioma classified as WHO grade III or IV
Test: Phase 1 dose-escalation clinical trial: safety (TEAEs, DLTs, MTD);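 further: dosing continued until unacceptable toxicity, consent withdrawal, loss to follow-up or investigator/sponsor decision, with cohorts of 1-6 patients per dose level and MTD estimated by BLRM from cumulative DLT data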
[1] = 180 mg QD (N=6), cutoff April 21, 2024
[2] = 240 mg (N=5), cutoff April 21, 2023
[3] = 240 mg QD (N=6), cutoff April 21, 2024
[4] = 360 mg QD (N=6), cutoff April 21, 2024
[5] = 480 mg daily (240 mg BID) (N=6), cutoff April 21, 2024
[6] = 480 mg daily [240 mg BID] group, cutoff April 21, 2024
[7] = N=23 (n=2), cutoff April 21, 2023
[8] = N=39 (n=2), cutoff April 21, 2024
[9] = N=39 (n=3), cutoff April 21, 2024
[10] = Total (N=23), cutoff April 21, 2023
[11] = Total (N=39), cutoff April 21, 2024

Procedure: Administration to each subject was continued until unacceptable toxicity occurred, consent was withdrawn, the subject was lost to follow-up, or discontinuation was determined by the investigator and/or the sponsor.
The present study consists of two parts: a dose-escalation part (Part 1) and a dose-expansion part (Part 2).
Each dose level was evaluated in cohorts of 1-6 patients. In all cohorts, administration of the investigational drug to the second and subsequent patients was permitted after completion of all safety assessments on Day 8 of Cycle 1 in the first patient. […] At dose level 2 in the dose-escalation part, at least three patients were required to be evaluated before escalation to a higher dose level. After completion of each cohort, the probability of observing a DLT at each dose level in the present study was updated using the BLRM based on cumulative data from the preceding cohorts, and the MTD was estimated.

## CC1(C)Oc2cc(Cl)ccc2[C@@H]2OCC3(CCN(CCn4ccnc4)CC3)C[C@H]21 [Compound 1, (4'aR,10'bR)-8'-chloro-1-[2-(1H-imidazol-1-yl)ethyl]-5',5'-dimethyl-4'a,10'b-dihydro-2'H,4'H,5'H-spiro[piperidine-4,3'-pyrano[3,2-c][1]benzopyran] diphosphate]
[1]
  TEAE: alopecia: 1 (16.7) n (%)
  TEAE: constipation: 2 (33.3) n (%)
  TEAE: decreased appetite: 1 (16.7) n (%)
  TEAE: decreased lymphocyte count: 1 (16.7) n (%)
  TEAE: decreased neutrophil count: 0 n (%)
  TEAE: decreased platelet count: 1 (16.7) n (%)
  TEAE: diarrhea: 1 (16.7) n (%)
  TEAE: dry skin: 1 (16.7) n (%)
  TEAE: fall: 2 (33.3) n (%)
  TEAE: fatigue: 0 n (%)
  TEAE: headache: 0 n (%)
  TEAE: hypertrigly-ceridaemia: 1 (16.7) n (%)
  TEAE: hyponatremia: 0 n (%)
  TEAE: increase in blood cholesterol: 0 n (%)
  TEAE: increased alanine aminotransferase: 4 (66.7) n (%)
  TEAE: increased aspartate aminotransferase: 2 (33.3) n (%)
  TEAE: maculopapular rash: 0 n (%)
  TEAE: nausea: 2 (33.3) n (%)
  TEAE: seizure: 2 (33.3) n (%)
  TEAE: vomiting: 2 (33.3) n (%)
[2]
  Number of patients with any TEAE: 5 (100) n (%)
  TEAE: constipation: 3 (60.0) n (%)
  TEAE: decreased appetite: 1 (20.0) n (%)
  TEAE: decreased lymphocyte count: 2 (40.0) n (%)
  TEAE: decreased neutrophil count: 0 n (%)
  TEAE: decreased platelet count: 0 n (%)
  TEAE: decreased white blood cell count: 0 n (%)
  TEAE: dry skin: 3 (60.0) n (%)
  TEAE: fall: 0 n (%)
  TEAE: headache: 3 (60.0) n (%)
  TEAE: hypertrigly-ceridaemia: 1 (20.0) n (%)
  TEAE: hyponatremia: 0 n (%)
  TEAE: increased alanine aminotransferase: 4 (80.0) n (%)
  TEAE: increased aspartate aminotransferase: 2 (40.0) n (%)
  TEAE: nausea: 3 (60.0) n (%)
  TEAE: seizure: 1 (20.0) n (%)
  TEAE: vomiting: 2 (40.0) n (%)
240 mg BID, dose as the present compound
  maximum tolerated dose (MTD): 480 mg daily
[3]
  Number of Patients with Any TEAE: 6 (100) n (%)
  TEAE: Confusional state: 1 (16.7) n (%)
  TEAE: Gait disturbance: 0 n (%)
  TEAE: Gastrointestinal disorder: 0 n (%)
  TEAE: Hiccups: 0 n (%)
  TEAE: Tremor: 0 n (%)
  TEAE: alopecia: 1 (16.7) n (%)
  TEAE: constipation: 3 (50.0) n (%)
  TEAE: decreased appetite: 2 (33.3) n (%)
  TEAE: decreased lymphocyte count: 2 (33.3) n (%)
  TEAE: decreased neutrophil count: 0 n (%)
  TEAE: decreased platelet count: 0 n (%)
  TEAE: diarrhea: 1 (16.7) n (%)
  TEAE: dry skin: 4 (66.7) n (%)
  TEAE: fall: 0 n (%)
  TEAE: fatigue: 1 (16.7) n (%)
  TEAE: headache: 4 (66.7) n (%)
  TEAE: hypertrigly-ceridaemia: 1 (16.7) n (%)
  TEAE: hyponatremia: 0 n (%)
  TEAE: increase in blood cholesterol: 1 (16.7) n (%)
  TEAE: increased alanine aminotransferase: 6 (100) n (%)
  TEAE: increased aspartate aminotransferase: 2 (33.3) n (%)
  TEAE: maculopapular rash: 0 n (%)
  TEAE: nausea: 4 (66.7) n (%)
  TEAE: seizure: 1 (16.7) n (%)
  TEAE: vomiting: 2 (33.3) n (%)
240 mg QD group, cutoff April 21, 2024
  serious TEAE: neoplasm progression: one
240 mg group, cutoff April 21, 2023
  serious TEAE: neoplasm progression: one
[4]
  Number of Patients with Any TEAE: 6 (100) n (%)
  TEAE: Confusional state: 0 n (%)
  TEAE: Gait disturbance: 1 (16.7) n (%)
  TEAE: Gastrointestinal disorder: 1 (16.7) n (%)
  TEAE: Hiccups: 0 n (%)
  TEAE: Tremor: 2 (33.3) n (%)
  TEAE: alopecia: 2 (33.3) n (%)
  TEAE: constipation: 2 (33.3) n (%)
  TEAE: decreased appetite: 1 (16.7) n (%)
  TEAE: decreased lymphocyte count: 0 n (%)
  TEAE: decreased neutrophil count: 1 (16.7) n (%)
  TEAE: decreased platelet count: 1 (16.7) n (%)
  TEAE: diarrhea: 2 (33.3) n (%)
  TEAE: dry skin: 0 n (%)
  TEAE: fall: 2 (33.3) n (%)
  TEAE: fatigue: 3 (50.0) n (%)
  TEAE: headache: 1 (16.7) n (%)
  TEAE: hypertrigly-ceridaemia: 1 (16.7) n (%)
  TEAE: hyponatremia: 1 (16.7) n (%)
  TEAE: increase in blood cholesterol: 2 (33.3) n (%)
  TEAE: increased alanine aminotransferase: 4 (66.7) n (%)
  TEAE: increased aspartate aminotransferase: 3 (50.0) n (%)
  TEAE: maculopapular rash: 1 (16.7) n (%)
  TEAE: nausea: 6 (100) n (%)
  TEAE: seizure: 0 n (%)
  TEAE: vomiting: 4 (66.7) n (%)
360 mg QD, cutoff April 21, 2024
  DLT (Grade 3 maculopapular rash; recovered to Grade 1 with treatment interruption): one
360 mg cohort, as of September 2023
  DLT: Grade 3 maculo-papular rash (recovered to grade 1 with dose interruption): one and One
[5]
  Number of Patients with Any TEAE: 6 (100) n (%)
  TEAE: Confusional state: 2 (33.3) n (%)
  TEAE: Gait disturbance: 2 (33.3) n (%)
  TEAE: Gastrointestinal disorder: 1 (16.7) n (%)
  TEAE: Hiccups: 2 (33.3) n (%)
  TEAE: Tremor: 0 n (%)
  TEAE: alopecia: 1 (16.7) n (%)
  TEAE: constipation: 1 (16.7) n (%)
  TEAE: decreased appetite: 1 (16.7) n (%)
  TEAE: decreased lymphocyte count: 1 (16.7) n (%)
  TEAE: decreased neutrophil count: 0 n (%)
  TEAE: decreased platelet count: 0 n (%)
  TEAE: diarrhea: 0 n (%)
  TEAE: dry skin: 3 (50.0) n (%)
  TEAE: fall: 3 (50.0) n (%)
  TEAE: fatigue: 2 (33.3) n (%)
  TEAE: headache: 0 n (%)
  TEAE: hypertrigly-ceridaemia: 0 n (%)
  TEAE: hyponatremia: 1 (16.7) n (%)
  TEAE: increase in blood cholesterol: 1 (16.7) n (%)
  TEAE: increased alanine aminotransferase: 5 (83.3) n (%)
  TEAE: increased aspartate aminotransferase: 2 (33.3) n (%)
  TEAE: maculopapular rash: 3 (50.0) n (%)
  TEAE: nausea: 2 (33.3) n (%)
  TEAE: seizure: 1 (16.7) n (%)
  TEAE: vomiting: 3 (50.0) n (%)
480 mg daily (240 mg BID), cutoff April 21, 2024
  patients with DLTs (Grade 3 maculopapular rash; Grade 2 nausea and vomiting): two
[6]
  serious TEAE: confusional state: one
  serious TEAE: fatigue: one
N=23 (6 patients), cutoff April 21, 2023
  patients with serious TEAEs: 26.1%
N=23 (13 patients), cutoff April 21, 2023
  patients with Grade ≥3 TEAEs: 56.5%
N=23 (16 patients), cutoff April 21, 2023
  patients with TEAEs considered to be related to the study drug: 69.6%
[7]
  Grade ≥3 TEAE: aphasia: 8.7%
  Grade ≥3 TEAE: decreased lymphocyte count: 8.7%
  Grade ≥3 TEAE: decreased white blood cell count: 8.7%
  Grade ≥3 TEAE: headache: 8.7%
N=23 (n=3), cutoff April 21, 2023
  Grade ≥3 TEAE: decreased neutrophil count: 13.0%
N=23 (n=4), cutoff April 21, 2023
  Grade ≥3 TEAE: seizure: 17.4%
N=23, 40 mg and 240 mg groups, cutoff April 21, 2023
  patients who died during the study due to TEAEs (assessed as not related): two
N=23, cutoff April 21, 2023
  Grade ≥3 TEAE considered related to Compound 1 (dry skin): one
  relatedness of serious TEAEs to Compound 1: None of these serious TEAEs were considered to be related to Compound 1
N=39 (9 patients), cutoff April 21, 2024
  patients with serious TEAEs: 23.1%
N=39 (23 patients), cutoff April 21, 2024
  patients with Grade ≥3 TEAEs: 59.0%
N=39 (30 patients), cutoff April 21, 2024
  patients with TEAEs considered to be related to the study drug: 76.9%
N=39 (n=1), cutoff April 21, 2024
  Grade ≥3 TEAE considered related to Compound 1: fatigue: 2.6%
[8]
  Grade ≥3 TEAE considered related to Compound 1: dry skin: 5.1%
  Grade ≥3 TEAE considered related to Compound 1: maculopapular rash: 5.1%
  Grade ≥3 TEAE: decreased white blood cell count: 5.1%
  Grade ≥3 TEAE: dry skin: 5.1%
  Grade ≥3 TEAE: increased alanine aminotransferase: 5.1%
  Grade ≥3 TEAE: maculopapular rash: 5.1%
[9]
  Grade ≥3 TEAE: aphasia: 7.7%
  Grade ≥3 TEAE: decreased lymphocyte count: 7.7%
  Grade ≥3 TEAE: decreased neutrophil count: 7.7%
  Grade ≥3 TEAE: headache: 7.7%
N=39 (n=4), cutoff April 21, 2024
  Grade ≥3 TEAE: fatigue: 10.3%
N=39 (n=5), cutoff April 21, 2024
  Grade ≥3 TEAE: seizure: 12.8%
N=39, 40 mg QD and 240 mg QD groups, cutoff April 21, 2024
  patients who died during the study due to TEAEs: Two
N=39, cutoff April 21, 2024
  serious TEAEs considered to be related to Compound 1: nine and None of these serious TEAEs were considered to be related to Compound 1
[10]
  Number of patients with any TEAE: 23 (100) n (%)
  TEAE: constipation: 7 (30.4) n (%)
  TEAE: decreased appetite: 3 (13.0) n (%)
  TEAE: decreased lymphocyte count: 5 (21.7) n (%)
  TEAE: decreased neutrophil count: 6 (26.1) n (%)
  TEAE: decreased platelet count: 4 (17.4) n (%)
  TEAE: decreased white blood cell count: 3 (13.0) n (%)
  TEAE: dry skin: 5 (21.7) n (%)
  TEAE: fall: 3 (13.0) n (%)
  TEAE: headache: 7 (30.4) n (%)
  TEAE: hypertrigly-ceridaemia: 4 (17.4) n (%)
  TEAE: hyponatremia: 3 (13.0) n (%)
  TEAE: increased alanine aminotransferase: 12 (52.2) n (%)
  TEAE: increased aspartate aminotransferase: 6 (26.1) n (%)
  TEAE: nausea: 11 (47.8) n (%)
  TEAE: seizure: 5 (21.7) n (%)
  TEAE: vomiting: 6 (26.1) n (%)
[11]
  Number of Patients with Any TEAE: 39 (100) n (%)
  TEAE: Confusional state: 4 (10.3) n (%)
  TEAE: Gait disturbance: 4 (10.3) n (%)
  TEAE: Gastrointestinal disorder: 4 (10.3) n (%)
  TEAE: Hiccups: 4 (10.3) n (%)
  TEAE: Tremor: 4 (10.3) n (%)
  TEAE: alopecia: 6 (15.4) n (%)
  TEAE: constipation: 11 (28.2) n (%)
  TEAE: decreased appetite: 6 (15.4) n (%)
  TEAE: decreased lymphocyte count: 6 (15.4) n (%)
  TEAE: decreased neutrophil count: 6 (15.4) n (%)
  TEAE: decreased platelet count: 5 (12.8) n (%)
  TEAE: diarrhea: 5 (12.8) n (%)
  TEAE: dry skin: 10 (25.6) n (%)
  TEAE: fall: 9 (23.1) n (%)
  TEAE: fatigue: 7 (17.9) n (%)
  TEAE: headache: 9 (23.1) n (%)
  TEAE: hypertrigly-ceridaemia: 5 (12.8) n (%)
  TEAE: hyponatremia: 5 (12.8) n (%)
  TEAE: increase in blood cholesterol: 4 (10.3) n (%)
  TEAE: increased alanine aminotransferase: 25 (64.1) n (%)
  TEAE: increased aspartate aminotransferase: 13 (33.3) n (%)
  TEAE: maculopapular rash: 4 (10.3) n (%)
  TEAE: nausea: 21 (53.8) n (%)
  TEAE: seizure: 7 (17.9) n (%)
  TEAE: vomiting: 14 (35.9) n (%)
As of September 2023, n=33
  study drug related Grade 3 AEs (dry skin, and rash): 2
  study drug-related SAEs: no study drug-related SAEs reported
From 20 mg QD to 240 mg QD, cutoff April 21, 2024
  dose-limiting toxicities (DLTs): No dose-limiting toxicities (DLTs) were observed
From 20 mg up to 240 mg, as of September 2023
  dose limiting toxicity: No dose limiting toxicity reported
One 20 mg QD, one 120 mg QD, two 180 mg QD, cutoff April 21, 2024
  serious TEAE: seizure: four
